{"source": "patent US9840494B2", "about": "“Quinazoline derivative” (Tianjin Hemay Oncology Pharmaceutical Co., Ltd., priority 2013, dated 2017)", "assay": "Bioavailability assay, Experiment III (free base)", "assay_type": "in vivo", "settings": "Wistar rats", "method": "Experiment III. Bioavailability Assay for N-[4-(3-chloro-4-fluorophenylamino)-7-(2-methoxyethoxy)quinazolin-6-yl]-2-[1-(2-methoxyethyl)piperidin-4-ylidene]acetamide\n8 Wistar rats (male, weighing 160-190 g) were purchased from Laboratory Animal Center, Chinese PLA Academy of Military Medical Sciences. License No.: SCXK (Army) 2012-0004; Certificate No.: 0037074.\n1) the compound was precisely weighed in a 10 ml glass tube;\n2) The volume of DMSO was 2% of the total volume and DMSO was pipetted. The tip of the pipette was slowly rotated with being pressed against the inner wall of the centrifuge tube, and DMSO was pipetted in several times to dissolve the compound adsorbed on the wall of the centrifuge tube. After all the compound was transferred to the bottom portion of the centrifuge tube, the compound was dissolved by vortex and then placed in a water bath at 80° C.;\n3) polyoxylethylene 35-castor oil of which the volume was 6% of the total volume was added and vortex;\n4) sodium chloride solution for injection (0.9%) of which the volume was 92% of the total volume was added and vortexed to give a clear solution which will be used within 60 min\n8 rats were fasted and ad libitum accessed to water for 12 h before administration. They were randomly divided into two groups, i.e. four rats per group, and were administered with the drug according to the administration scheme. Blood (about 0.5 ml) was drawn from the orbital venous plexus before dosing and at 5 min, 0.5 h, 1 h, 2 h, 3 h, 4 h, 5 h, 6 h and 8 h after dosing, and put into a heparinized centrifuge tube and centrifuged at 8000 r/min for 10 min 100 μl of the plasma was recovered, and 200 μl of 0.2% acetic acid in methanol (containing an internal standard (irbesartan, 20 ng/ml)) was added thereto to precipitate protein, vortexed for 2 min and centrifuged at 13000 r/min for 10 min The supernatant was obtained, and 20 μl of the supernatant was injected for detection.\nChromatographic column: phenomenex Synergi Polar-RP (150×4.6 mm, 2.5 μm)\nFlow rate: 1 ml/min; column temperature: 40° C.\nMobile phase: A phase: 5 mM aqueous solution of ammonium formate; B phase: methanol, and the gradient was as follows: […]\nAPI3000 LC-MS/MS; ESI source; MRM positive ion scan mode; and the parameters were as follows:\nThe main pharmacokinetic parameters and oral bioavailability results were calculated by using DAS2.0 (statistical moment).\nMethod for the calculation of bioavailability: F=(AUCig×Div)/(AUCiv×Dig)×100%\nwherein D is dose; AUC: the area under the plasma drug concentration-time curve; ig represents intragastric administration; and iv represents intravenous injection administration.", "key": {"[1]": {"settings": "20 mg/kg intragastric gavage, preformulation"}, "[2]": {"settings": "20 mg/kg tail intravenous injection, preformulation"}, "[3]": {"settings": "male, rat, plasma, po, 20 mg/kg intragastric gavage, preformulation"}, "[4]": {"settings": "male, rat, plasma, 20 mg/kg tail intravenous injection, preformulation"}}}
{"smiles": "COCCOc1cc2ncnc(Nc3ccc(F)c(Cl)c3)c2cc1NC(=O)C=C1CCN(CCOC)CC1", "note": "[Compound 1, N-[4-(3-chloro-4-fluorophenylamino)-7-(2-methoxyethoxy)quinazolin-6-yl]-2-[1-(2-methoxyethyl)piperidin-4-ylidene]acetamide]", "values": [{"measurement": "CLz/F", "setting": "[1]", "result": 103, "unit": "mL/min/kg"}, {"measurement": "t½z", "setting": "[1]", "result": 4.59, "unit": "h"}, {"measurement": "CLz", "setting": "[2]", "result": 24.7, "unit": "mL/min/kg"}, {"measurement": "t½z", "setting": "[2]", "result": 4.39, "unit": "h"}, {"measurement": "bioavailability", "setting": "male, rat, plasma, oral, 20 mg/kg ig vs 20 mg/kg iv", "result": 23.9, "unit": "%"}, {"measurement": "AUC(0-inf)", "setting": "[3]", "result": 3320, "unit": "ng·h/mL"}, {"measurement": "AUC(0-t)", "setting": "[3]", "result": 2190, "unit": "ng·h/mL"}, {"measurement": "Cmax", "setting": "[3]", "result": 416, "unit": "ng/mL"}, {"measurement": "Tmax", "setting": "[3]", "result": 2.5, "unit": "h"}, {"measurement": "Vd/F", "setting": "male, rat, plasma, po, 20 mg/kg intragastric gavage, preformulation, read-out: Vz/F", "result": 39.2, "unit": "L/kg"}, {"measurement": "AUC(0-inf)", "setting": "[4]", "result": 13900, "unit": "ng·h/mL"}, {"measurement": "AUC(0-t)", "setting": "[4]", "result": 11800, "unit": "ng·h/mL"}, {"measurement": "Cmax", "setting": "[4]", "result": 13200, "unit": "ng/mL"}, {"measurement": "Tmax", "setting": "[4]", "result": 0.083, "unit": "h"}, {"measurement": "Vd", "setting": "male, rat, plasma, 20 mg/kg tail intravenous injection, preformulation, read-out: Vz", "result": 9.55, "unit": "L/kg"}]}
